Results published in a melting point compilation (Tetko et al.; mined from patent text by program, amines drawn as free bases though some values may be those of a salt).

SMILES	melting point [°C]
CC(C)C(=N)Nc1cc(F)ccc1N1CCOCC1	142
C/C(=N\OCCN1CCOCC1)[C@H]1CC[C@H]2[C@@H]3CCC4=CC(=O)CC[C@]4(C)[C@H]3CC[C@]12C	107 to 108
[N-]=[N+]=NCCCCCCC(N)=O	62
CCOC(=O)CCc1cc(O)ccc1-c1ccc(-c2cccc(C)c2)c(CO)c1	57 to 59
Oc1c(C2(c3ccc4ccccc4c3O)c3ccccc3-c3ccccc32)ccc2ccccc12	268 to 290
Cc1ccc(S(=O)(=O)OCC2C(=O)Nc3ccccc3SC2c2ccccc2)cc1 (stereo not drawn)	215
CN(C)CCCOc1cccc(N(C(=O)c2ccccc2)c2ccccc2)c1	77 to 81
Cc1ccc(COc2ccc(C(=O)NC[C@@H](C(=O)NO)N3CCN(S(C)(=O)=O)CC3)cc2)cc1	180
CC(C)(C)OC(=O)CC1=CCCCC1n1nc(-c2c(-c3ccccc3)nn3ccccc23)ccc1=O (stereo not drawn)	146 to 147
CNC(=O)[C@H](Cc1ccc(OC(C)C)cc1)NC(=O)[C@@H](N)CC(C)C	148 to 160
CC(C)(C)OC(=O)NCC12CCC1CN(Cc1ccccc1)C2 (stereo not drawn)	78 to 79
OC(CN1CCNC1=S)c1cc(Cl)cc(Cl)c1 (stereo not drawn)	158
CCSc1c2ccccc2c(C=O)c2ccccc12	74 to 75.5
CC1(C)OCC[C@@H]2[C@@H](NC(=O)OCc3ccccc3)C(=O)N21 (relative stereo)	129 to 131
CCCn1c(=O)c2nc(-c3ccc(/C=C/C(=O)O)cc3)[nH]c2n(Cc2ccccc2)c1=O	> 300
O=P(O)(O)Cc1ccc(CS(=O)(=O)c2ccccc2)cc1	> 280
O=C1N(CC2CCCO2)c2c(F)cccc2C12COc1cc3c(cc12)CCO3 (stereo not drawn)	169 to 170
CC(CCCc1ccccc1)Oc1cc(O)c2c(c1)CC(C)(C)CC2CC(N)=O (stereo not drawn)	67 to 72
O=[N+]([O-])c1cc(CO)ccc1OCc1ccccc1	76 to 77
CCC(Cc1ccc(S(=O)(=O)c2ccc(S(N)(=O)=O)s2)cc1)N(C)C (stereo not drawn)	169 to 172
CC1(C)C=C(c2cccnc2)c2cc(C#N)ccc2O1	98 to 99
Cc1cccc(-c2nc3cccnn3c2-c2ccnc(NC(=O)c3ccccc3)c2)c1	178 to 180
CCOC(=O)/C=C/c1sc(-n2cnc3ccccc32)nc1C(C)C	229 to 230
Cc1c(NC(=O)c2ccc(OC[C@@H]3CCCO3)cc2)ccc2cc(CN3CCC(C)(O)CC3)[nH]c12	169
CCc1c(C#N)c(-c2ccc(C#N)cc2)c(C)n1Cc1cnc(Cl)c(COC(=O)CCC(=O)O)c1	187 to 188
Cn1cnc(COc2nc3c(cc2-c2cccs2)nnn3-c2ccccc2F)n1	179 to 181

SMILES	melting point [°C]
Nc1cccc(Cn2c(-c3ccc(-c4cccnc4)cc3)ccc2-c2ccccc2Cl)n1	139 to 145
CCOC(=O)c1noc(-c2ccc(Cl)cc2)n1	88 to 89
CC(C)(C)[Si](C)(C)OCCn1ccc([N+](=O)[O-])n1	76 to 77
Cc1ccc(C(=O)OCCOc2ccc(OC(F)(F)F)cc2)cc1	76 to 77.5
CCCCC1(CCn2ccnc2)SCCS1	105 to 108
Cc1sc2c(=O)[nH]cnc2c1Br	320 to 322
N#Cc1ccc(C2CCCC(=O)N2c2ccccc2)cc1 (stereo not drawn)	120
CCCCC(=NNC=O)c1ccncc1	143
N#CCNCCc1c[nH]c2ccc(Cl)cc12	80
COc1ccc2c(c1)OCC(c1ccc(F)cc1)C2c1ccc(O)cc1 (stereo not drawn)	164 to 165
N#Cc1ccc2c(c1)CCc1nn(-c3ccccn3)c(O)c1-2	232 to 233
COc1ccc(Br)cc1OCCCCCc1ccc(F)cc1	46 to 47
NC(=O)c1sc2ccc(C(F)(F)F)cc2c1O	196 to 197
O=C(c1ccnc(F)c1)N1CCC[C@H](c2noc(-c3ccc(F)cc3)n2)C1	117 to 119
CCOC(=O)c1cn(C)nc1C(F)(F)F	61.5 to 63.1
Cn1c(C(=O)N(Cc2cc(C(F)(F)F)cc(C(F)(F)F)c2)Cc2cc(C(F)(F)F)cc(C(F)(F)F)c2)c(-c2ccc(F)cc2)c2cccnc2c1=O	252 to 254
CC12CCC(O)CC1=CCC1C2CCC2(C)C(n3cnc4ccccc43)=CCC12 (stereo not drawn)	189 to 190
CCOC(=O)c1cn(C)c2cc(-c3ccccc3)sc2c1=O	189 to 191
N#CC(=Cc1ccc(O)c(O)c1)C(=O)Nc1ccccc1	258
CS(=O)(=O)Nc1cccc(Nc2nc(NCCc3c[nH]cn3)c3nc[nH]c3n2)c1	205 to 210
COc1ccccc1N1CCN(CC2CCc3ccccc3C2O)CC1 (stereo not drawn)	110 to 113
CSC(=NC(C)=O)N(C)N=Cc1ccccc1	102 to 104
CS(=O)(=O)c1ccc(-c2[nH]c(SCc3ccc4ccccc4n3)nc2-c2ccc(F)cc2)cc1	179 to 182
Cc1nc2c(N)nc3ccccc3c2n1CCCCNC(=O)c1ccccc1	164 to 170
COc1cc2cc(Cl)nc(N3CCN(C(=O)Nc4ccc([N+](=O)[O-])cc4)CC3)c2cc1OC	227 to 228
CCCCCCCCCCCCCCCCCCOc1cc(OCCCBr)cc(N(CC(=O)OC)CC(=O)OC)c1	67 to 69

SMILES	melting point [°C]
ClCc1c(Cl)nnc(Cl)c1Cl	102 to 104
CC(=O)Nc1nc2cc(-c3ccc(C=C4SC(=O)NC4=O)cn3)cc(C34CC5CC(CC(C5)C3)C4)c2o1	> 360
N#CC(C(=O)c1ccc(-c2ccc(Cl)cc2)cc1)=C1CCCCN1	134
Cc1ccc(C(=O)c2cccc(C(=O)O)c2)c(O)c1	198 to 215
COC(=O)c1cncn1C(c1ccccc1)c1ccccc1	129
CC(C)COC(=O)Nc1cccc(-c2ccnc3c(-c4cccs4)cnn23)c1	140 to 141
Cc1nc(-c2cccc(NC(=O)N3CCc4c(cnc5[nH]ncc45)C3)c2)no1	> 140
c1ccc2c(c1)ccn2Nc1ccncn1	81 to 85
CC(C)(CNc1c(C(N)=O)cnn2cccc12)N1CCOCC1	179
O=C(O)CSCc1nccc2ccccc12	186 to 187
CC(C)Cn1nc(O)nc1Cl	84 to 86
CCOC(=O)C1=Cc2cccc(NS(=O)(=O)N(C)C)c2OCC1	93 to 96
CC1=NC(NC(=O)Nc2cccc(C)c2)C(=O)N(CC(=O)C23CC4CC(CC(C4)C2)C3)c2c(C)cccc21 (stereo not drawn)	182 to 184
Cc1cc(CO)nc2cc3c(cc12)OC(C)(C)[C@H](O)[C@H]3NCCc1ccc(F)cc1 (relative stereo)	147 to 152
COc1ccc(-n2cccc2)c(N)c1	42 to 43
COC(=O)c1ccc(/C=C\c2ccc(C(=O)OC)cc2Cl)cc1	134 to 135
O=Cc1c([N+](=O)[O-])ccc(Cl)c1[N+](=O)[O-]	101 to 102
CC(=O)Nc1nc2c(Oc3cc(-c4ccc(C(F)(F)F)cc4Cl)ncn3)cccc2s1	263 to 264
COC(=O)COc1ccc(C(=O)C(C)Br)cc1Cl (stereo not drawn)	63 to 65
COc1ccc(N2CCN(C(=S)C3(C)CCc4c(C)c(O)c(C)c(C)c4O3)CC2)cc1 (stereo not drawn)	120 to 121
CC1NC(=O)NN=C1c1ccc(Cl)cc1 (stereo not drawn)	221 to 222
CN1CCN(c2ccc(C(=O)NCCCCCCCCCCO[N+](=O)[O-])cn2)CC1	62 to 64
COc1ccc(N2CCN(CCn3c(=O)[nH]c4cscc4c3=O)CC2)cc1	238 to 239
CCOC(=O)C1=Cc2cc(Cl)cc(CO[N+](=O)[O-])c2OC1C(F)(F)F (stereo not drawn)	53
CCCCCCCCOc1ccc(C(=O)NN)cc1	90
COc1cc2ncc(F)c(Cl)c2cc1OC	159 to 160

SMILES	melting point [°C]
Cc1cc(C(=O)CBr)c(C)o1	56 to 58
CNC(=O)Nc1ccc(CN2OCC(C)(C)C2=O)c(Cl)c1	227 to 229
CSc1nnnc2c1sc1nc(C)ccc12	197 to 198
CCC(C)C(C(=O)O)n1sc2ccccc2c1=O (stereo not drawn)	50 to 52
CCOC(=O)c1cn(CCO)c2nc(-c3ccncc3)c(F)cc2c1=O	223 to 225
CCOc1ccc(S(=O)(=O)N2CCN(C)CC2)cc1-c1nc2c([nH]1)c1nncn1c(=O)n2CC	248
CC(=O)Nc1ccc(C#N)c(F)c1F	175 to 177
CCOc1ccc(Oc2ccc(OCc3cc(F)ccc3F)cc2)c(N)c1	72 to 73.5
COc1cc2c(cc1OC)-c1c(C#N)sc(=O)n1CC2	205 to 207
CCOC(=O)c1c(C(F)(F)F)nc(C(F)F)c(C(=O)OC)c1N1CC1	92 to 95
O=C1C(=O)N(CCN2CCN(C(c3ccccc3)c3ccccc3)CC2)c2ccccc21	145 to 148
CC(C)(O)c1ccc(Cl)nc1	67 to 71
O=C(NCc1ccco1)c1cc2ccnc(Cl)c2[nH]1	205 to 209
COc1nc2cc(Cl)c(Cl)c(-n3c(CN4CCOCC4)nnc3-c3cccnc3)c2nc1OC	178 to 179
O=C1C=CC(=O)C2=C1OCO2	106 to 107
CCC1c2cccn2-c2cc(OC)c(F)cc2N1S(=O)(=O)c1ccc(OC)c(C)c1 (stereo not drawn)	130 to 132
O=[N+]([O-])c1ccc(Cl)cc1NC1Cc2ccccc2C1	108
CCOC(=O)C1Cc2cc(-c3noc4ccccc34)c(Cl)c(Cl)c2O1 (stereo not drawn)	114 to 116
COc1ccc(S(=O)(=O)N(Cc2ccccc2)C2(C(=O)NO)CCSCC2)cc1	179 to 181
COc1ccc(C#CCSc2ccc(OCC(=O)O)c(C)c2)cc1	143 to 144
COc1cccc(-c2ccccc2)c1C(O)=S	97 to 98
CCCCCCCCNc1ccc2c(C)nc(CC3OC(CO)C(O)C3O)n2n1 (stereo not drawn)	105 to 106
Clc1ccc(C2(CBr)OCC(COc3ccc(Cl)c4ccccc34)O2)c(Cl)c1 (stereo not drawn)	123
NC(=O)CCc1ccc(-c2nc(=O)c3ccccc3s2)nc1	248
CSCCOc1ccc(/C=C(\C)c2ccc3c(c2)C(C)(C)CCC3(C)C)cc1	94 to 96
